From publication PMC5526877, “Structure of Chorismate Mutase-like Domain of DAHPS from Bacillus subtilis Complexed with Novel Inhibitor Reveals Conformational Plasticity of Active Site” (Scientific Reports, 2017)
Where a name gives a salt, the structure may show the parent alone.

Experiments:
[1] = target: T1, BsCM_2 (chorismate mutase type II N-terminal domain of DAHPS) (Bacillus subtilis, UniProt P39912); experiment: ITC; also Michaelis-Menten kinetics (Km […]); type: binding; set-up: gene aroA; N-terminal chorismate mutase-like domain of DAHPS (306 bp fragment); settings: read-out: Dissociation constant, K D
[2] = target: T1, BsCM_2 (chorismate mutase type II N-terminal domain of DAHPS); experiment: crystal structure at […] Å (citrate from crystallization buffer) and ITC; type: binding; set-up: gene aroA; N-terminal chorismate mutase-like domain of DAHPS (306 bp fragment), homodimer
[3] = target: T1, BsCM_2 (chorismate mutase type II N-terminal domain of DAHPS); experiment: co-crystal structure at […] Å and ITC; also competitive enzyme inhibition (Ki […], IC50 […]); type: binding; set-up: gene aroA; N-terminal chorismate mutase-like domain of DAHPS (306 bp fragment), homodimer; settings: read-out: Dissociation constant, K D
[4] = target: the molecule itself; experiment: crystal structure; BsCM_2 co-crystallised with chlorogenic acid (1.8 Å, P21, two monomers per asymmetric unit) and with citrate from the buffer (1.9 Å, P1, four monomers per asymmetric unit); sitting drop, 1 M ammonium sulphate, 0.1 M potassium sodium tartrate, 0.1 M sodium citrate pH 5.8, 20 °C; dimer interface analysed with PISA

Q: Which Kd [1] does the source give for `C=C(O[C@@H]1C=C(C(=O)O)C=C[C@H]1O)C(=O)O` [chorismate] here?
A: 725 µM

Q: For `O=C(O)CC(O)(CC(=O)O)C(=O)O` [CIT, citrate], which Kd [2] is on record?
A: 600 µM

Q: For `O=C(/C=C/c1ccc(O)c(O)c1)O[C@@H]1C[C@](O)(C(=O)O)C[C@@H](O)[C@H]1O` [CGA, chlorogenic acid], which Kd [3] is on record?
A: 480 µM

B1: Chorismate mutase type II-like N-terminal domain (AroQ class) of 3-deoxy-D-arabino-heptulosonate-7-phosphate synthase (DAHPS) from Bacillus subtilis (domain or fragment, Bacillus subtilis strain 3256)
chain: MSNTELELLRQKADELNLQILKLINERGNVVKEIGKAKEAQGVNRFDPVRERTMLNNIIENNDGPFENSTIQHIFKEIFKAGLELQEEDH
notes: the forward primer encodes MSNTEL from the start codon, the reverse primer encodes ...QEEDH followed by a stop codon; residues 1-88 are spoken of in the structures; strain 3256 may differ; also called BsCM_2; CM_2 domain; source: E. coli BL21 (DE3), pET28c/BsCM_2, purified (HisTrap Ni-NTA, Superdex 75 SEC)
Q: For B1, which “stoichiometry N” value [4] is on record?
A: 2
